Source: patent US20070254910A1, “CHEMICAL COMPOUNDS” (priority 2004, published 2007)

These molecules were tested on HIV (assay: HOS HIV anti-infectivity assay (strain not stated)). Settings: Human immunodeficiency virus 1, HOS HIV anti-infectivity assay; read-out: Activity Level.
Format: cell-based
Description: Compounds were profiled against two HIV-1 viruses, the M-tropic (CCR5 utilizing) Ba-L strain and the T-tropic (CXCR4 utilizing) IIIB strain. Both viruses were propagated in human peripheral blood lymphocytes. Compounds were tested for there ability to block infection of the HOS cell line (expressing hCXCR4/hCCR5/hCD4/pHIV-LTR-luciferase) by either HIV-1 Ba-L or HIV-1 IIIB. Compound cytotoxicity was also examined in the absence of virus addition.
HOS cells (expressing hCXCR4/hCCR5/hCD4/pHIV-LTR-luciferase) were harvested and diluted in Dulbeccos modified Eagles media supplemented with 2% FCS and non-essential amino acid to a concentration of 60,000 cells/ml. The cells were plated into 96-well plates (100 ul per well) and the plates were placed in a tissue culture incubator (37° C.; 5% CO2/95% air) for a period of 24 h.
Subsequently, 50 ul of the desired drug solution (4 times the final concentration) was added to each well and the plates were returned to the tissue culture incubator (37° C.; 5% CO2/95% air) for 1 h. Following this incubation 50 ul of diluted virus was added to each well (approximately 2 million RLU per well of virus). The plates were returned to the tissue culture incubator (37° C.; 5% CO2/95% air) and were incubated for a further 96 h.
Following this incubation the endpoint for the virally infected cultures was quantified following addition of Steady-Glo Luciferase assay system reagent (Promega, Madison, Wis.). Cell viability or non-infected cultures was measured using a CellTiter-Glo luminescent cell viability assay system (Promega, Madison, Wis.). All luminescent readouts are performed on a Topcount luminescence detector (Packard, Meridien, Conn.).
Work on `CN1CCN(c2cccc3nc(CN(C)C4CCCc5cccnc54)c(C(O)C(F)(F)F)n23)CC1` (stereo not drawn) [Example 89A, 2,2,2-Trifluoro-1-(5-(4-methyl-1-piperazinyl)-2-{[methyl(5,6,7,8-tetrahydro-8-quinolinyl)amino]methyl}imidazo[1,2-a]pyridin-3-yl)ethanol] yielded an IC50 of less than 100 nM. In the case of `CN[C@@H]1CCN(c2cccc3nc(CN(C)[C@H]4CCCc5cccnc54)c(CO)n23)C1` [Example 63, [5-[(3R)-3-(Methylamino)-1-pyrrolidinyl]-2-({methyl[(8S)-5,6,7,8-tetrahydro-8-quinolinyl]amino}methyl)imidazo[1,2-a]pyridin-3-yl]methanol], the IC50 is reported as less than 100 nM. In the case of `CCC(O)c1c(CN(C)[C@H]2CCCc3cccnc32)nc2cccc(N3CCN(C)CC3)n12` (stereo partly drawn) [Example 85, 1-[5-(4-Methyl-1-piperazinyl)-2-({methyl[(8S)-5,6,7,8-tetrahydro-8-quinolinyl]amino}methyl)imidazo[1,2-a]pyridin-3-yl]-1-propanol], the IC50 is reported as less than 100 nM. `CCOCc1c(CN(C)[C@H]2CCCc3cccnc32)nc2cccc(N3CCN(C)CC3)n12` [Example 87, (8S)—N-{[3-[(Ethyloxy)methyl]-5-(4-methyl-1-piperazinyl)imidazo[1,2-a]pyridin-2-yl]methyl}-N-methyl-5,6,7,8-tetrahydro-8-quinolinamine] gave an IC50 of less than 100 nM. Work on `CN1CCC(N(C)c2cccc3nc(CN(C)[C@H]4CCCc5cccnc54)c(CO)n23)C1` (stereo partly drawn) [Example 52, [5-[Methyl(1-methyl-3-pyrrolidinyl)amino]-2-({methyl[(8S)-5,6,7,8-tetrahydro-8-quinolinyl]amino}methyl)imidazo[1,2-a]pyridin-3-yl]methanol] yielded an IC50 of less than 100 nM. `CN1CCN(c2cccc3nc(CN(Cc4ccccc4)[C@H]4CCCc5cccnc54)c(CO)n23)CC1` [Example 40, [5-(4-Methyl-1-piperazinyl)-2-({(phenylmethyl)[(8S)-5,6,7,8-tetrahydro-8-quinolinyl]amino}methyl)imidazo[1,2-a]pyridin-3-yl]methanol] showed an IC50 of less than 100 nM. With `CN1CCN(c2cccc3nc(CN(Cc4ccc(C(F)(F)F)cc4)[C@H]4CCCc5cccnc54)c(CO)n23)CC1` [Example 42, {5-(4-Methyl-1-piperazinyl)-2-[((8S)-5,6,7,8-tetrahydro-8-quinolinyl{[4-(trifluoromethyl)phenyl]methyl}amino)methyl]imidazo[1,2-a]pyridin-3-yl}methanol] the IC50 was less than 100 nM. `CN(C)[C@@H]1CCN(c2cccc3nc(CN(C)[C@H]4CCCc5cccnc54)c(CO)n23)C1` [Example 46, [5-[(3R)-3-(Dimethylamino)-1-pyrrolidinyl]-2-({methyl[(8S)-5,6,7,8-tetrahydro-8-quinolinyl]amino}methyl)imidazo[1,2-a]pyridin-3-yl]methanol] was tested, and the IC50 was less than 100 nM. Work on `COCc1c(CN(C)[C@H]2CCCc3cccnc32)nc2cccc(N3CCN(C)CC3)n12` [Example 86, (8S)—N-Methyl-N-{[3-[(methyloxy)methyl]-5-(4-methyl-1-piperazinyl)imidazo[1,2-a]pyridin-2-yl]methyl}-5,6,7,8-tetrahydro-8-quinolinamine] yielded an IC50 of less than 100 nM.
